The values that follow come from article PMC8001558 (Viruses, 2021).

Read-outs that look alike come from different tables or passages of the source.

Data set [1] concerns GII.4 VA387 (N/N) P-dimers. Type of data set: binding. The settings on record: CSP NMR; buffer B: 75 mM sodium phosphate, 100mM NaCl (pH 7.3); 170 µM protein; 298 K; listed as 3′SL.
For a further data set, the system named is VA387 P-dimers. Also noted: method as in ref 31 = [31]. The conditions noted are these: MS based data; cited from earlier work.
Another data set deals with MNV07 P-domain. It is filed as binding.
Data set [2] concerns the target GII.4 Saga (N/N) P-dimers (Norovirus GII.4, UniProt B5BTR7). Nature of the data set: biochemical. It is filed as binding.
The target in data set [3] is GII.4 MI001 (N/N) P-dimers (Norovirus Hu/GII.4/MI001/2011/USA, UniProt S5FWF8). Nature of the data set: biochemical. It is filed as binding. The settings on record: CSP NMR titration; 75 mM sodium phosphate, 100 mM NaCl (pH 7.3); 220 µM protein.
The next data set has as its target GII.10 P-dimers. Also noted: method as in ref 28 = [28]. The settings on record: STD NMR titrations stopped at first step of the curve; cited from earlier work.
A further data set has as its target GII.4 Saga (P-domain) (Norovirus GII.4, UniProt B5BTR7). Nature of the data set: Re-evaluation of previously reported STD NMR titrations, one-site binding model. Also on record: species or system human norovirus (HuNoV).
The next data set concerns the target MNV CW1 P-domain (Norovirus, UniProt Q80J94, K296E). Nature of the data set: CSP NMR binding experiment with MNV P-domain. Also noted: species or system murine norovirus (MNV). The conditions noted are these: MNV P-domains saturated with GCDCA.
Data set [4] addresses P-domain of the VP1 capsid protein of human norovirus GII.4 strain MI001 (human norovirus GII.4 strain MI001).
The target of data set [5] is P-domain of the VP1 capsid protein of human norovirus GII.4 strain VA387 (human norovirus GII.4 strain VA387).
In data set [6] the target is P-domain of the VP1 capsid protein of murine norovirus strain MNV07 (murine norovirus strain MNV07).
Setting [7] is: 25 mM Tris-d11 pH* 7.40, 300 mM NaCl, 298 K, refit of titration data of ref [2], read-out: KD in mM (reevaluated).

A word on the melting point: it is the temperature of the solid-liquid transition. As for `C[C@@H]1O[C@@H](O[C@@H]2[C@@H](O[C@H]3O[C@H](CO)[C@H](O)[C@H](O)[C@H]3O)[C@@H](O)[C@@H](CO)O[C@@H]2N=[N+]=[N-])[C@@H](O)[C@H](O)[C@@H]1O` (hydrate or solvate) [B-Tri 3, blood group B trisaccharide (azido group at the anomeric position)], the melting point was in the range of 204 to 206 °C.
Take `CC(=O)N[C@H]1[C@H]([C@H](O)[C@H](O)CO)O[C@@](O[C@H]2[C@@H](O)[C@@H](CO)O[C@@H](O[C@H]3[C@H](O)[C@@H](O)[C@H](O)O[C@@H]3CO)[C@@H]2O)(C(=O)O)C[C@@H]1O` [3′SL 6, 3′-sialyllactose]: the “binding (tested negative/positive)” value in data set [1] was “no binding”; in the data set with MNV07 P-domain (STD, buffer B (20 mM sodium acetate, 100 mM NaCl, pH 5.3), with GCDCA, no EDTA, no Ca2+, listed as 3′SL), “no saturation transfer”. Also, in the data set with VA387 P-dimers, the “binding to VA387 P-dimers” value is on record as “neither 3′-sialyllactose nor 6′-sialyllactose bind”.
Take `CC(=O)N[C@H]1[C@H]([C@H](O)[C@H](O)CO)O[C@@](OC[C@H]2O[C@@H](O[C@H]3[C@H](O)[C@@H](O)[C@H](O)O[C@@H]3CO)[C@H](O)[C@@H](O)[C@H]2O)(C(=O)O)C[C@@H]1O` [6′-sialyllactose, reference compound]: in the data set with VA387 P-dimers, the “binding to VA387 P-dimers” value is “neither 3′-sialyllactose nor 6′-sialyllactose bind”.
A word on the Kd: it is the free concentration of one partner at which half of the binding sites on the other are occupied at equilibrium, for simple one-to-one binding. The molecule `CC(=O)N[C@H]1[C@@H](O[C@H]2[C@@H](O)[C@@H](CO)O[C@@H](O)[C@@H]2O[C@@H]2O[C@@H](C)[C@@H](O)[C@@H](O)[C@@H]2O)O[C@H](CO)[C@H](O)[C@@H]1O` [A-Tri 2, blood group A trisaccharide] had a Kd in data set [2] of 4.3 ± 0.4 mM.
As to `C[C@@H]1O[C@@H](O[C@@H]2[C@@H](O[C@H]3O[C@H](CO)[C@H](O)[C@H](O)[C@H]3O)[C@@H](O)[C@@H](CO)O[C@@H]2N=[N+]=[N-])[C@@H](O)[C@H](O)[C@@H]1O` [B-Tri 3, blood group B trisaccharide (azido group at the anomeric position)], in [3], binding was put at a Kd of 4.3 ± 0.4 mM.
Take `O=C(O)CC(O)(CC(=O)O)C(=O)O` [Citrate, reference compound]: the dissociation constants result at GII.10 P-dimers is “sub millimolar”. This molecule also showed a Kd on GII.4 Saga (P-domain) (KD in mM (reevaluated)) of 22.9 ± 2.7 mM.
Take `CO[C@@H]1O[C@@H](C)[C@@H](O)[C@@H](O)[C@@H]1O` [Fuc 8, methyl α-L-fucopyranoside]: the Kd at GII.4 Saga (P-domain) (25 mM BisTris-d19 pH* 6.5, 300 mM NaCl, 298 K, refit of titration data of ref [2], read-out: KD in mM (reevaluated)) is 15.1 ± 1.6 mM; on GII.4 Saga (P-domain) (25 mM PBS pH* 5.50, 300 mM NaCl, 298 K, refit of titration data of ref [2], read-out: KD in mM (reevaluated)) it was 21.9 ± 2.6 mM; on GII.4 Saga (P-domain) (25 mM PBS pH* 6.50, 300 mM NaCl, 298 K, refit of titration data of ref [2], read-out: KD in mM (reevaluated)) it was 18.4 ± 2.6 mM; on GII.4 Saga (P-domain) (25 mM PBS pH* 7.40, 300 mM NaCl, 298 K, refit of titration data of ref [2] (Mallagaray et al., Angew Chem Int Ed 2015), read-out: KD in mM (reevaluated)), 15.6 ± 1.9 mM; on GII.4 Saga (P-domain) (25 mM sodium acetate-d3, pH* 4.50, 300 mM NaCl, 298 K, refit of titration data of ref [2], read-out: KD in mM (reevaluated)), 24.5 ± 4.1 mM.
Take `CC(CCC(=O)NCC(=O)O)C1CCC2C3C(O)CC4CC(O)CCC4(C)C3CCC12C` (centres unmarked) [GCDCA, glycochenodeoxycholic acid, reference compound]: the “STD effects (saturation transfer to ligand)” value with MNV07 P-domain (80 µM protein, 20 mM sodium acetate buffer (pH 5.3), 250 µM GCDCA, 2 mM 3′SL, 298 K, 600 MHz) is recorded as “show STD effects”.
Turning to `CO[C@@H]1O[C@H](CO)[C@H](O)[C@H](O)[C@H]1O[C@@H]1O[C@@H](C)[C@@H](O)[C@@H](O)[C@@H]1O` [H-Dis 12, blood group H-disaccharide], the Kd on GII.4 Saga (P-domain) (setting [7]) was determined as 26.5 ± 2.7 mM.
For the molecule `C[C@H](O)[C@@H](O)[C@@H](O)[C@H](O)C=O` [L-fucose], the dissociation constants entry at GII.10 P-dimers is on record as “sub millimolar”.
On to `[Cl-].[Cl-].[Mg+2]` [Mg^2+], for which the “binding of bivalent metal ions” value at MNV CW1 P-domain is reported as “detected binding”.
Same read-out and setting: as for `[Mn+2]` [Mn^2+], the entry is “detected binding”.
For the molecule `CO[C@@H]1O[C@H](CO)[C@H](O)[C@H](O[C@H]2O[C@H](CO)[C@H](O)[C@H](O)[C@H]2O)[C@H]1O[C@@H]1O[C@@H](C)[C@@H](O)[C@@H](O)[C@@H]1O` [b -Methyl glycoside of B-trisaccharide, reference compound], the Kd at GII.4 Saga (P-domain) (setting [7]) was 5.2 ± 0.5 mM.
Broadly, the stoichiometry N is a count of units in the complex or per binding partner. In data set [4], “P-domain of the VP1 capsid protein of human norovirus GII.4 strain MI001 (domain or fragment)” showed a stoichiometry N of 2.
“P-domain of the VP1 capsid protein of human norovirus GII.4 strain VA387 (domain or fragment)” registered a stoichiometry N in data set [5] of 2.
“P-domain of the VP1 capsid protein of murine norovirus strain MNV07 (domain or fragment)” showed a stoichiometry N in [6] of 2.
